Test results as given in the supplement of paper PMC10307832.

How the values were obtained:
Experiment in all cases: relative viability (nuclei count vs DMSO), 5 days (fraction); higher = more cells survive
[1] = system: NCI-H2085
Method in brief: (§1)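 Relative viability is defined as nuclei in treated wells over nuclei in vehicle wells. Duplicate plates were run and medians reported. Lung cancer cell lines in 1536-well plates were dosed by pin tool one day after seeding, with one drug or with a fixed anchor-drug dose plus five library-drug doses (not always all listed) in √10 steps, and nuclei were counted after 5 days.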

[2] = system: NCI-H460
Method in brief: as §1

[3] = system: LCLC-103H
Method in brief: as §1

[4] = system: NCI-H838
Method in brief: as §1

[5] = system: NCI-H1755
Method in brief: as §1

[6] = system: NCI-H2342
Method in brief: as §1

[7] = system: SK-LU-1
Method in brief: as §1

[8] = system: NCI-H1355
Method in brief: as §1

[9] = system: NCI-H322M
Method in brief: as §1

[10] = system: NCI-H1666
Method in brief: as §1

[11] = system: EMC-BAC-2
Method in brief: as §1

[12] = system: NCI-H1648
Method in brief: as §1

[13] = system: PC-14
Method in brief: as §1

[14] = system: LK-2
Method in brief: as §1

[15] = system: NCI-H1944
Method in brief: as §1

[16] = system: NCI-H647
Method in brief: as §1

[17] = system: NCI-H1437
Method in brief: as §1

[18] = system: RERF-LC-KJ
Method in brief: as §1

[19] = system: NCI-H2126
Method in brief: as §1

[20] = system: SW 900
Method in brief: as §1

[21] = system: NCI-H1915
Method in brief: as §1

[22] = system: NCI-H1975
Method in brief: as §1

[23] = system: NCI-H3122
Method in brief: as §1

## Oc1nc(-c2ccc(C(F)(F)F)cc2)nc2c1CSCC2 [XAV939] + Nc1nc2[nH]cc(CCc3ccc(C(=O)N[C@@H](CCC(=O)O)C(=O)O)cc3)c2c(=O)[nH]1 [Pemetrexed] (partner 0.2 µM)
[1]; first compound 0.08 µM
  relative viability: 1.02
[1]; first compound 0.253 µM
  relative viability: 0.801
[1]; first compound 0.8 µM
  relative viability: 0.878
[1]; first compound 2.53 µM
  relative viability: 0.837
[2]; first compound 0.08 µM
  relative viability: 0.0608
[2]; first compound 0.253 µM
  relative viability: 0.0511
[2]; first compound 0.8 µM
  relative viability: 0.07
[2]; first compound 2.53 µM
  relative viability: 0.0697
[3]; first compound 0.08 µM
  relative viability: 0.448
[3]; first compound 0.253 µM
  relative viability: 0.405
[3]; first compound 0.8 µM
  relative viability: 0.519
[3]; first compound 2.53 µM
  relative viability: 0.472
[4]; first compound 0.08 µM
  relative viability: 0.252
[4]; first compound 0.253 µM
  relative viability: 0.245
[4]; first compound 0.8 µM
  relative viability: 0.244
[4]; first compound 2.53 µM
  relative viability: 0.233
[5]; first compound 0.08 µM
  relative viability: 0.382
[5]; first compound 0.253 µM
  relative viability: 0.425
[5]; first compound 0.8 µM
  relative viability: 0.489
[5]; first compound 2.53 µM
  relative viability: 0.336
[6]; first compound 0.08 µM
  relative viability: 0.784
[6]; first compound 0.253 µM
  relative viability: 0.662
[6]; first compound 0.8 µM
  relative viability: 0.719
[6]; first compound 2.53 µM
  relative viability: 0.426
[7]; first compound 0.08 µM
  relative viability: 1.05
[7]; first compound 0.253 µM
  relative viability: 1
[7]; first compound 0.8 µM
  relative viability: 1.1
[7]; first compound 2.53 µM
  relative viability: 0.947
[8]; first compound 0.08 µM
  relative viability: 1.02
[8]; first compound 0.253 µM
  relative viability: 0.944
[8]; first compound 0.8 µM
  relative viability: 0.962
[8]; first compound 2.53 µM
  relative viability: 0.852
[9]; first compound 0.08 µM
  relative viability: 0.585
[9]; first compound 0.253 µM
  relative viability: 0.561
[9]; first compound 0.8 µM
  relative viability: 0.548
[9]; first compound 2.53 µM
  relative viability: 0.512
[10]; first compound 0.08 µM
  relative viability: 0.822
[10]; first compound 0.253 µM
  relative viability: 0.865
[10]; first compound 0.8 µM
  relative viability: 0.864
[10]; first compound 2.53 µM
  relative viability: 0.925
[11]; first compound 0.08 µM
  relative viability: 0.454
[11]; first compound 0.253 µM
  relative viability: 0.399
[11]; first compound 0.8 µM
  relative viability: 0.412
[11]; first compound 2.53 µM
  relative viability: 0.344
[12]; first compound 0.253 µM
  relative viability: 0.701
[12]; first compound 0.8 µM
  relative viability: 0.667
[12]; first compound 2.53 µM
  relative viability: 0.722
[13]; first compound 0.08 µM
  relative viability: 0.14
[13]; first compound 0.253 µM
  relative viability: 0.12
[13]; first compound 0.8 µM
  relative viability: 0.123
[13]; first compound 2.53 µM
  relative viability: 0.118
[14]; first compound 0.08 µM
  relative viability: 0.291
[14]; first compound 0.253 µM
  relative viability: 0.281
[14]; first compound 0.8 µM
  relative viability: 0.236
[14]; first compound 2.53 µM
  relative viability: 0.229
[15]; first compound 0.08 µM
  relative viability: 0.714
[15]; first compound 0.253 µM
  relative viability: 0.623
[15]; first compound 0.8 µM
  relative viability: 0.584
[15]; first compound 2.53 µM
  relative viability: 0.501
[16]; first compound 0.08 µM
  relative viability: 0.168
[16]; first compound 0.253 µM
  relative viability: 0.179
[16]; first compound 0.8 µM
  relative viability: 0.166
[16]; first compound 2.53 µM
  relative viability: 0.146
[17]; first compound 0.08 µM
  relative viability: 0.294
[17]; first compound 0.253 µM
  relative viability: 0.272
[17]; first compound 0.8 µM
  relative viability: 0.326
[17]; first compound 2.53 µM
  relative viability: 0.276
[18]; first compound 0.08 µM
  relative viability: 0.493
[18]; first compound 0.253 µM
  relative viability: 0.464
[18]; first compound 0.8 µM
  relative viability: 0.502
[18]; first compound 2.53 µM
  relative viability: 0.453
[19]; first compound 0.08 µM
  relative viability: 0.671
[19]; first compound 0.253 µM
  relative viability: 0.542
[19]; first compound 0.8 µM
  relative viability: 0.665
[19]; first compound 2.53 µM
  relative viability: 0.598
[20]; first compound 0.253 µM
  relative viability: 0.45
[20]; first compound 0.8 µM
  relative viability: 0.483
[20]; first compound 2.53 µM
  relative viability: 0.42
[21]; first compound 0.08 µM
  relative viability: 0.454
[21]; first compound 0.253 µM
  relative viability: 0.466
[21]; first compound 0.8 µM
  relative viability: 0.531
[21]; first compound 2.53 µM
  relative viability: 0.486
[22]; first compound 0.08 µM
  relative viability: 0.27
[22]; first compound 0.253 µM
  relative viability: 0.273
[22]; first compound 0.8 µM
  relative viability: 0.286
[22]; first compound 2.53 µM
  relative viability: 0.246
[23]; first compound 0.08 µM
  relative viability: 0.211
[23]; first compound 0.253 µM
  relative viability: 0.19
[23]; first compound 0.8 µM
  relative viability: 0.198
[23]; first compound 2.53 µM
  relative viability: 0.178

## Oc1nc(-c2ccc(C(F)(F)F)cc2)nc2c1CSCC2 [XAV939] + Nc1ncn([C@H]2C[C@H](O)[C@@H](CO)O2)c(=O)n1 [Decitabine] (partner 2 µM)
[1]; first compound 0.08 µM
  relative viability: 0.536
[1]; first compound 0.253 µM
  relative viability: 0.494
[1]; first compound 0.8 µM
  relative viability: 0.537
[1]; first compound 2.53 µM
  relative viability: 0.462
[2]; first compound 0.08 µM
  relative viability: 0.599
[2]; first compound 0.253 µM
  relative viability: 0.443
[2]; first compound 0.8 µM
  relative viability: 0.501
[2]; first compound 2.53 µM
  relative viability: 0.458
[3]; first compound 0.08 µM
  relative viability: 0.756
[3]; first compound 0.253 µM
  relative viability: 0.587
[3]; first compound 0.8 µM
  relative viability: 0.687
[3]; first compound 2.53 µM
  relative viability: 0.642
[4]; first compound 0.08 µM
  relative viability: 0.488
[4]; first compound 0.253 µM
  relative viability: 0.442
[4]; first compound 0.8 µM
  relative viability: 0.458
[4]; first compound 2.53 µM
  relative viability: 0.384
[5]; first compound 0.08 µM
  relative viability: 0.693
[5]; first compound 0.253 µM
  relative viability: 0.677
[5]; first compound 0.8 µM
  relative viability: 0.72
[5]; first compound 2.53 µM
  relative viability: 0.691
[6]; first compound 0.08 µM
  relative viability: 0.832
[6]; first compound 0.253 µM
  relative viability: 0.669
[6]; first compound 0.8 µM
  relative viability: 0.72
[6]; first compound 2.53 µM
  relative viability: 0.427
[7]; first compound 0.08 µM
  relative viability: 0.665
[7]; first compound 0.253 µM
  relative viability: 0.523
[7]; first compound 0.8 µM
  relative viability: 0.652
[7]; first compound 2.53 µM
  relative viability: 0.688
[8]; first compound 0.08 µM
  relative viability: 0.357
[8]; first compound 0.253 µM
  relative viability: 0.309
[8]; first compound 0.8 µM
  relative viability: 0.393
[8]; first compound 2.53 µM
  relative viability: 0.298
[9]; first compound 0.08 µM
  relative viability: 0.684
[9]; first compound 0.253 µM
  relative viability: 0.619
[9]; first compound 0.8 µM
  relative viability: 0.653
[9]; first compound 2.53 µM
  relative viability: 0.566
[10]; first compound 0.08 µM
  relative viability: 0.747
[10]; first compound 0.253 µM
  relative viability: 0.674
[10]; first compound 0.8 µM
  relative viability: 0.678
[10]; first compound 2.53 µM
  relative viability: 0.531
[11]; first compound 0.08 µM
  relative viability: 1.04
[11]; first compound 0.253 µM
  relative viability: 0.935
[11]; first compound 0.8 µM
  relative viability: 0.884
[11]; first compound 2.53 µM
  relative viability: 0.721
[12]; first compound 0.253 µM
  relative viability: 0.423
[12]; first compound 0.8 µM
  relative viability: 0.386
[12]; first compound 2.53 µM
  relative viability: 0.438
[13]; first compound 0.08 µM
  relative viability: 0.203
[13]; first compound 0.253 µM
  relative viability: 0.224
[13]; first compound 0.8 µM
  relative viability: 0.165
[13]; first compound 2.53 µM
  relative viability: 0.18
[14]; first compound 0.08 µM
  relative viability: 0.263
[14]; first compound 0.253 µM
  relative viability: 0.322
[14]; first compound 0.8 µM
  relative viability: 0.318
[14]; first compound 2.53 µM
  relative viability: 0.189
[15]; first compound 0.08 µM
  relative viability: 0.424
[15]; first compound 0.253 µM
  relative viability: 0.439
[15]; first compound 0.8 µM
  relative viability: 0.44
[15]; first compound 2.53 µM
  relative viability: 0.403
[16]; first compound 0.08 µM
  relative viability: 0.393
[16]; first compound 0.253 µM
  relative viability: 0.26
[16]; first compound 0.8 µM
  relative viability: 0.283
[16]; first compound 2.53 µM
  relative viability: 0.279
[17]; first compound 0.08 µM
  relative viability: 0.626
[17]; first compound 0.253 µM
  relative viability: 0.478
[17]; first compound 0.8 µM
  relative viability: 0.539
[17]; first compound 2.53 µM
  relative viability: 0.431
[18]; first compound 0.08 µM
  relative viability: 0.717
[18]; first compound 0.253 µM
  relative viability: 0.657
[18]; first compound 0.8 µM
  relative viability: 0.583
[18]; first compound 2.53 µM
  relative viability: 0.552
[19]; first compound 0.08 µM
  relative viability: 0.559
[19]; first compound 0.253 µM
  relative viability: 0.537
[19]; first compound 0.8 µM
  relative viability: 0.595
[19]; first compound 2.53 µM
  relative viability: 0.481
[20]; first compound 0.253 µM
  relative viability: 0.454
[20]; first compound 0.8 µM
  relative viability: 0.438
[20]; first compound 2.53 µM
  relative viability: 0.428
[21]; first compound 0.08 µM
  relative viability: 0.253
[21]; first compound 0.253 µM
  relative viability: 0.25
[21]; first compound 0.8 µM
  relative viability: 0.265
[21]; first compound 2.53 µM
  relative viability: 0.268
[22]; first compound 0.08 µM
  relative viability: 0.382
[22]; first compound 0.253 µM
  relative viability: 0.357
[22]; first compound 0.8 µM
  relative viability: 0.379
[22]; first compound 2.53 µM
  relative viability: 0.354
[23]; first compound 0.08 µM
  relative viability: 0.572
[23]; first compound 0.253 µM
  relative viability: 0.401
[23]; first compound 0.8 µM
  relative viability: 0.51
[23]; first compound 2.53 µM
  relative viability: 0.394
